molecular target: NMDA receptor composed of four subunits including two sets of heterodimers of NR1 and NR2B (GRIN1/GRIN2B) expressed in HEK 293 cells (Homo sapiens, UniProt Q13224); experiment: NR2B Ca2+ influx assay; assay type: cell-based; details: HEK293, final concentration 10 μM; glutamic acid and glycine induced Ca2+ influx, HEK 293 cells expressing human GRIN1 and GRIN2B; read-out: % inhibited(10 μM)
Description: The HEK 293 cells that express GRIN1 and GRIN2B were purchased from ChanTest (human NMDA (NR1/NR2B) receptor-expressing, stable replicating cell line (HEK 293) catalog no. CT6121).
Intracellular calcium-ion (Ca^2+) influx caused by glycine and glutamic acid respectively binding to NR1 and NR2B was used as an index of NMDA receptor activation.
The HEK 293 cells expressing GRIN1 and GRIN2B were cultured in a cell culture flask in an incubator (37° C., in 5% CO2) using a DMEM/F-12 (Cosmo Bio, 10-092-CM) medium supplemented with 10% FBS (fetal bovine serum, AusGene), 100 units/mL penicillin, 100 μg/mL streptomycin, 500 μg/mL neomycin, 100 μg/mL Zeocin (registered trademark of Invitrogen), and 5 μg/mL blasticidin.
On the day before the assay, the cells were detached from the flask by trypsinization, suspended in a seeding medium (DMEM (Invitrogen, 31053) supplemented with 10% FBS, 100 units/mL penicillin, and 100 μg/mL streptomycin) so as to be 8×10^5 cells/mL, seeded at 25 μL per well in a 384-well plate (Falcon, 356663) so as to be 20,000 cells/well, and cultured overnight using the incubator. On the day of the assay, tetracycline (Wako Pure Chemical, 209-16561) was diluted with the seeding medium at 2 μg/mL, and added at 25 μL/well to the plate into which the cells were seeded, and this was cultured for 2 hours in the incubator. Afterward, the medium was removed and washed with an assay buffer (137 mM NaCl, 4 mM KCl, 1.8 mM CaCl2), 10 mM HEPES (pH 7.2), 10 mM glucose, 0.1% BSA) at 50 μL/well. Next, a loading buffer (buffer wherein 2.5 μM Fluo-4 AM, 2 mM amaranth, and 1 mM tartrazine are added to the assay buffer) was added at 25 μL/well, and this was incubated in the incubator for 30 minutes and for 15 minutes at room temperature. Solutions wherein the Example compounds were diluted with the above-mentioned assay buffer so as to be 30 μM (final concentration 10 μM) were added at 25 μL/well, and these were left standing for 15 minutes at room temperature. Using FDSS7000EX/μCELL (Hamamatsu Photonics), an assay buffer including 30 μM glutamic acid and 30 μM glycine was added at 25 μL/well, and a fluorescence signal of an Excitation wavelength of 480 nm and an Emission wavelength of 540 nm was measured every 3 seconds for 5 minutes. The inhibitory activity was calculated as a relative activity value (inhibitory rate) wherein relative to an integrated value of florescence values of each well, an integrated value of fluorescence values of a well into which an assay buffer without glutamic acid and glycine was defined as 100% inhibition.

Sequence of NMDA receptor composed of four subunits including two sets of heterodimers of NR1 and NR2B (GRIN1/GRIN2B) expressed in HEK 293 cells (Q13224 27-1484, other chains not shown): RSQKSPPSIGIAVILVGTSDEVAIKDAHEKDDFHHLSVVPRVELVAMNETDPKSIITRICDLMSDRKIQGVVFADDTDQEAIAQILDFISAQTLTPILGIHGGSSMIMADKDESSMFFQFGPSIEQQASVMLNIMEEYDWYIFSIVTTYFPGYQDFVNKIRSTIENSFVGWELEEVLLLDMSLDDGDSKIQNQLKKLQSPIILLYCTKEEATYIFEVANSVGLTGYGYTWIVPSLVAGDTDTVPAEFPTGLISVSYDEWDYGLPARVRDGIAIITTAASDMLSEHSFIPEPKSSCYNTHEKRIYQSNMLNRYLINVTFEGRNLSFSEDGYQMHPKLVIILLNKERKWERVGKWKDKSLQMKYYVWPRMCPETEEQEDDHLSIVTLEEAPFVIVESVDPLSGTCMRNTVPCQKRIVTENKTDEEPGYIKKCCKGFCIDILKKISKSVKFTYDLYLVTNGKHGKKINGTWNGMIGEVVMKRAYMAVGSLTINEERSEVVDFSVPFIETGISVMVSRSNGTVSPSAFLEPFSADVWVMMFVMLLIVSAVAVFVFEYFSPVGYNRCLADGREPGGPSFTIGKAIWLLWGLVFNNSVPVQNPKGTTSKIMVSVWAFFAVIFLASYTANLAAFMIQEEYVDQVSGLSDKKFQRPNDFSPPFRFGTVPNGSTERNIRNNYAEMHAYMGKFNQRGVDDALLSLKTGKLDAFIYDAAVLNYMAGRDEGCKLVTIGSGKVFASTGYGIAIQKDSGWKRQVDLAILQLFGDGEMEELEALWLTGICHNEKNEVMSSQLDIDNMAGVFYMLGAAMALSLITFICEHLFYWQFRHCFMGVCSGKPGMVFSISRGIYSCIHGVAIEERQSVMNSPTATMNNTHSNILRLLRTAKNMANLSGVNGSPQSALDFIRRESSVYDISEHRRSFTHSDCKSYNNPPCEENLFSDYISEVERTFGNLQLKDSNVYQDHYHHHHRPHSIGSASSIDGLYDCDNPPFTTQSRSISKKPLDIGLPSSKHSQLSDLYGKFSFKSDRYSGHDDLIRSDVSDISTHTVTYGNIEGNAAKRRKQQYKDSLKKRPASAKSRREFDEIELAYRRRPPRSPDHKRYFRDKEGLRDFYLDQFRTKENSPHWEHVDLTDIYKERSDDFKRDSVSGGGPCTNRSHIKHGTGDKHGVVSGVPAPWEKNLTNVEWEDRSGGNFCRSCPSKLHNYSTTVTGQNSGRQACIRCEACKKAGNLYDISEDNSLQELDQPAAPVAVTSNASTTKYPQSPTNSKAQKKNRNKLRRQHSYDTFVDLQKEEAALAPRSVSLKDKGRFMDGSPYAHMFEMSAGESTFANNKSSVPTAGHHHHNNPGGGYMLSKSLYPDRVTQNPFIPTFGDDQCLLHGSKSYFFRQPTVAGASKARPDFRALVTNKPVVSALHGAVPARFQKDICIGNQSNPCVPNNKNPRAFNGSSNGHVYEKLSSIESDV

Row | SMILES | inhibition at 10 µM [%]
1 | Cc1ccc(Oc2ccc(CN3C(=O)CCC3C)cc2)cc1 (centres unmarked) [Example 1, 5-methyl-1-{[4-(4-methylphenoxy)phenyl]methyl}pyrrolidin-2-one] | 99
2 | Cc1ccc(Oc2ccc(CN3C(=O)C[C@H](O)[C@@H]3C)cc2)cc1 [Example 6, (4S,5S)-4-hydroxy-5-methyl-1-{[4-(4-methylphenoxy)phenyl]methyl}pyrrolidin-2-one] | 97
3 | CC[C@H]1[C@@H](O)CC(=O)N1Cc1ccc(Oc2ccc(C)cc2)cc1 [Example 7, (4S,5S)-5-ethyl-4-hydroxy-1-{[4-(4-methylphenoxy)phenyl]methyl}pyrrolidin-2-one] | 98
4 | C[C@H]1[C@@H](O)CC(=O)N1Cc1ccc(Oc2ccc(F)cc2)cc1 [Example 9, (4S,5S)-1-{[4-(4-fluorophenoxy)phenyl]methyl}-4-hydroxy-5-methylpyrrolidin-2-one] | 96
5 | Cc1ccc(Oc2ccc(CN3C(=O)C[C@@H](O)[C@@H]3C)cc2)cc1 [Example 10, (4R,5S)-4-hydroxy-5-methyl-1-{[4-(4-methylphenoxy)phenyl]methyl}pyrrolidin-2-one] | 94
6 | Cc1ccc(Oc2ccc(CN3C(=O)C[C@H](O)[C@H]3C)cc2)cc1 [Example 11, (4S,5R)-4-hydroxy-5-methyl-1-{[4-(4-methylphenoxy)pheny]methyl}pyrrolidin-2-one] | 91
7 | Cc1ccc(Oc2ccc(CN3C(=O)C[C@@H](O)[C@H]3C)cc2)cc1 [Example 12, (4R,5R)-4-hydroxy-5-methyl-1-{[4-(4-methylphenoxy)pheny]methyl}pyrrolidin-2-one] | 93
8 | Cc1ccc(Oc2ccc(CN3C(=O)C[C@H](O)[C@@H]3C)cn2)cc1 [Example 13, (4S,5S)-4-hydroxy-5-methyl-1-{[6-(4-methylphenoxy)pyridin-3-yl]methyl}pyrrolidin-2-one] | 97
9 | Cc1ccc(Oc2ccc(CN3C(=O)C[C@H](O)[C@@H]3C)nc2)cc1 [Example 16, (4S,5S)-4-hydroxy-5-methyl-1-{[5-(4-methylphenoxy)pyridin-2-yl]methyl}pyrrolidin-2-one] | 95
10 | C[C@H]1[C@@H](O)CC(=O)N1Cc1ccc(Oc2c(F)cc(F)cc2F)nc1 [Example 27, (4S,5S)-4-hydroxy-5-methyl-1-{[6-(2,4,6-trifluorophenoxy)pyridin-3-yl]methyl}pyrrolidin-2-one] | 97
11 | Cc1ccc(Oc2ccc(CN3C(=O)CCC3C(F)(F)F)cn2)cc1 (centres unmarked) [Example 29, 1-{[6-(4-methylphenoxy)pyridin-3-yl]methyl}-5-(trifluoromethyl)pyrrolidin-2-one] | 93

More lines, now with the values ahead:

Row | inhibition at 10 µM [%] | SMILES
12 | 93 | Cc1ccc(Oc2cnc(CN3C(=O)CCC3C)cn2)cc1 (centres unmarked) [Example 4, 5-methyl-1-{[5-(4-methylphenoxy)pyrazin-2-yl]methyl}yrrolidin-2-one]
13 | 91 | Cc1ccc(Oc2ncc(CN3C(=O)CCC3C)cn2)cc1 (centres unmarked) [Example 5, 5-methyl-1-{[2-(4-methylphenoxy)pyrimidin-5-yl]methyl}pyrrolidin-2-one]
14 | 53 | Cc1ccc(Oc2cnc(CN3C(=O)CCC3C)nc2)cc1 (centres unmarked) [Example 8, 5-methyl-1{[5-(4-methylphenoxy)pyrimidin-2-yl]methyl}pyrrolidin-2-one]
15 | 90 | Cc1ccc(Oc2ncc(CN3C(=O)C[C@H](O)[C@@H]3C)cn2)cc1 [Example 15, (4S,5S)-4-hydroxy-5-methyl-1-{[2-(4-methylphenoxy)pyrimidin-5-yl]methyl}pyrrolidin-2-one]
16 | 98 | Cc1ccc(Oc2ccc(CN3C(=O)OC[C@@H]3C)cc2)cc1 [Example 18, (4S)-4-methy-3-{[4-(4-methylphenoxy)phenyl]methyl}1,3-oxazolidin-2-one]
17 | 82 | Cc1ccc(Oc2cnc(CN3C(=O)C[C@H](O)[C@@H]3C)cn2)cc1 [Example 19, (4S,5S)-4-hydroxy-5-methyl-1-{[5-(4-methylphenoxy)pyrazin-2-yl]methyl}pyrrolidin-2-one]
18 | 97 | Cc1ccc(Oc2ccc(CN3C(=O)OC[C@@H]3C)cn2)cc1 [Example 20, (4S)-4-methyl-3-{[6-(4-methylphenoxy)pyridin-3-yl]methyl}-1,3-oxazolidin-2-one]
19 | 98 | Cc1ccc(Oc2ccc(CN3C(=O)CC[C@@H]3C)cn2)cc1 [Example 21, (5S)-5-methyl-1-{[6-(4-methylphenoxy)pyridin-3-yl]methyl}pyrrolidin-2-one]
20 | 95 | Cc1ccc(Oc2ncc(CN3C(=O)CC[C@@H]3C)cn2)cc1 [Example 22, (5S)-5-methyl-1-{[2-(4-methylphenoxy)pyrimidin-5-yl]methyl}pyrrolidin-2-one]
21 | 94 | Cc1ccc(Oc2ncc(CN3C(=O)OC[C@@H]3C)cn2)c(F)c1 [Example 23, (4S)-3-{[2-(2-fluoro-4-methylphenoxy)pyrimidin-5-yl]methyl}-4-methyl-1,3-oxazolidin-2-one]
22 | 93 | C[C@H]1COC(=O)N1Cc1cnc(Oc2c(F)cc(F)cc2F)nc1 [Example 24, (4S)-4-methyl-3-{[2-(2,4,6-trifluorophenoxy)pyrimidin-5-yl]methyl}-1,3-oxazolidin-2-one]
23 | 96 | Cc1ccc(Oc2ccc(CN3C(=O)OC[C@@H]3C)cn2)c(F)c1 [Example 25, (4S)-3-{[6-(2-fluoro-4-methylphenoxy)pyridin-3-y]methyl}-4-methyl-1,3-oxazolidin-2-one]
24 | 97 | Cc1ccc(Oc2ccc(CN3C(=O)C[C@H](O)[C@@H]3C)cn2)c(F)c1 [Example 26, (4S,5S)-1-{[6-(2-fluoro-4-methylphenoxy)pyridin-3-yl]methyl}-4-hydroxy-5-methylpyrrolidin-2-one]
25 | 96 | C[C@H]1COC(=O)N1Cc1ccc(Oc2c(F)cc(F)cc2F)nc1 [Example 28, (4S)-4-methyl-3-{[6-(2,4,6-trifluorophenoxy)pyridin-3-yl]methyl}-1,3-oxazolidin-2-one]
26 | 90 | Cc1ccc(Oc2ncc(CN3C(=O)OC[C@@H]3C)cn2)cc1 [Example 30, (4S)-4-methyl-3-{[2-(4-methylphenoxy)pyrimidin-5-yl]methyl}-1,3-oxazolidin-2-one]
27 | 97 | Cc1cc(F)c(Oc2ccc(CN3C(=O)C[C@H](O)[C@@H]3C)cn2)c(F)c1 [Example 31, (4S,5S)-1{[-6-(2,6-difluoro-4-methylphenoxy)pyridin-3-yl]methyl}4-hydroxy-5-methylpyrrolidin-2-one]
28 | 92 | Cc1cc(F)c(Oc2ncc(CN3C(=O)OC[C@@H]3C)cn2)c(F)c1 [Example 32, (4S)-3-{[2-(2,6-difluoro-4-methylphenoxy)pyrimidin-5-yl]methyl}-4-methyl-1,3-oxazolidin-2-one]
29 | 97 | C[C@H]1CNC(=O)N1Cc1ccc(Oc2c(F)cc(F)cc2F)nc1 [Example 33, (5S)-5-methyl-1-{[6-(2,4,6-trifluorophenoxy)pyridin-3-yl]methyl}imidazolidin-2-one]

same assay, conditions: final concentration 10 μM; glutamic acid and glycine induced Ca2+ influx, HEK 293 cells expressing human GRIN1 and GRIN2B

Row | % inhibited(10 μM) [%] | SMILES
30 | 96 | Cc1ccc(Oc2ccc(CN3C(=O)C[C@H](O)[C@@H]3C)cn2)cc1.Cl [Example 14, (4S,5S)-4-hydroxy-5-methyl-1-{[6-(4-methylphenoxy)pyridin-3-yl]methyl}pyrrolidin-2-one]

same assay, conditions: final concentration 10 μM; glutamic acid and glycine induced Ca2+ influx, HEK 293 cells expressing human GRIN1 and GRIN2B; 10 µM

Row | % inhibited(10 μM) [%] | SMILES
31 | 98 | Cc1ccc(Oc2ccc(CN3C(=O)CCC3C)cc2)cc1 (single isomer, unassigned) [Example 2, 5-methyl-1-{[4-(4-methylphenoxy)pheny]methyl}pyrrolidin-2-one (optical isomer)]
32 | 99 | Cc1ccc(Oc2ccc(CN3C(=O)CCC3C)cc2)cc1 (single isomer, unassigned) [Example 3, 5-methyl-1-{[4-(4-methylphenoxy)phenyl]methyl}pyrrolidin-2-one (optical isomer)]

— patent US12630509B2, “Heterocyclic NMDA antagonists” (TAKEDA PHARMACEUTICAL COMPANY LIMITED, priority 2019, dated 2026)
